Test results from PubChem BioAssay (NCI).
“And” between values parts separate entries of the source, which are not always exact repeats. Equal entries are not always repeated.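 Grown in 96-well plates, cells were treated for 48 hours with each compound at five concentrations. Insufficient inhibition: endpoint recorded as highest concentration tested. GI50 marks 50% less growth. The concentration for full growth arrest is given as TGI.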

Tests used:
Assay in all cases: NCI-60 cell line screen, 48 h
[1] = system: NCI-H522 lung
[2] = system: M14 melanoma
[3] = system: A498 renal
[4] = system: U251 CNS
[5] = system: MCF7 breast
[6] = system: HCT-116 colon
[7] = system: MALME-3M melanoma
[8] = system: HOP-62 NSCLC
[9] = system: PC-3 prostate
[10] = system: NCI-H226 lung

SMILES | TGI [1] | TGI [2] | TGI [3] | TGI [4] | TGI [5] | TGI [6] | TGI [7] | TGI [8] | TGI [9] | TGI [10] | GI50 [2] | GI50 [3] | GI50 [4] | GI50 [6] | GI50 [7] | GI50 [8]
CCON1CC(C(=O)OC)=C(O)C1=O | > 100 µM | > 100 µM | > 100 µM | > 100 µM | > 100 µM | > 100 µM | > 100 µM | > 100 µM | > 100 µM | – | – | – | – | – | – | –
CC(=O)OC1CCC2C3CCc4c(C)ccc(OS(=O)(=O)c5ccccc5)c4C3CCC12C (centres undefined) | > 100 µM | – | > 100 µM | > 100 µM | > 100 µM | 48.3 µM | > 100 µM | > 100 µM | > 100 µM | > 100 µM | – | – | – | – | – | –
C1=C\SS/C=C\SS/1 | – | > 100 µM | > 100 µM | > 100 µM | 36.2 µM | > 100 µM | – | > 100 µM | > 100 µM | > 100 µM | – | – | – | – | – | –
CCOC(=O)c1nnsc1NN | > 100 µM | > 100 µM | – | > 100 µM | > 100 µM | > 100 µM | – | > 100 µM | > 100 µM | > 100 µM | – | – | – | – | – | –
CCOC(=O)c1nc2cc(C(F)(F)F)ccc2nc1Nc1ccc(C(=O)NC(C(=O)OCC)C(=O)OCC)cc1 | 40.3 µM | – | 50.3 µM | 32 µM | 57.2 µM | 37.4 µM | 40.3 µM | 41 µM | > 100 µM | 34.8 µM | – | – | – | – | – | –
CCCSc1nc(-c2ccc(OC)cc2)c(C#N)c(=O)n1C1OC(COC(C)=O)C(OC(C)=O)C(OC(C)=O)C1OC(C)=O (centres undefined) | > 100 µM | > 100 µM and 50.2 µM | > 100 µM and 78.2 µM | > 100 µM and 34.2 µM | – | > 100 µM | > 100 µM | > 100 µM | – | – | > 100 µM and 23.1 µM | 20.9 µM | > 100 µM and 17.9 µM | > 100 µM | > 100 µM and 32.3 µM | > 100 µM and 30.1 µM
CC1(C)[C@H]2CC[C@@]13C(=O)N1C(=O)O[C@@H]([C@H]1Cl)C(Cl)(COCc1ccccc1)C(=O)OCCO[C@H]3C2 (some centres undefined) | > 100 µM | > 100 µM | > 100 µM | > 100 µM | > 100 µM | > 100 µM | > 100 µM | > 100 µM | > 100 µM | – | – | – | – | – | – | –
COc1ccc(C2c3cc4c(cc3OC(N3CCOCC3)C2C)OCO4)c(OC)c1OC (centres undefined) | 29.7 µM | 33.5 µM | – | – | 80.2 µM | 22.3 µM | – | > 100 µM | 88.7 µM | – | – | – | – | – | – | –
COc1ccc(N(C(=O)Nc2ccc(Cl)c(Cl)c2)C2c3cccn3C(=O)N2c2ccc(Cl)c(Cl)c2)cc1 (centres undefined) | – | > 100 µM | > 100 µM | > 100 µM | > 100 µM | > 100 µM | > 100 µM | – | > 100 µM | > 100 µM | – | – | – | – | – | –
CCC(C(=O)C(=O)OC)P1(=O)OC(C)(C)CN1C(C)(C)C (centres undefined) | – | > 100 µM | 53.1 µM | > 100 µM | > 100 µM | > 100 µM | > 100 µM | > 100 µM | > 100 µM | > 100 µM | – | – | – | – | – | –
COC(=O)C1=Nc2c(C)nn(-c3ccccc3)c2N=C(c2ccccc2)C1 | > 10 µM | > 10 µM | – | > 10 µM | > 10 µM | > 10 µM | > 10 µM | > 10 µM | > 10 µM | – | – | – | – | – | – | –
CC12CCCC3(CC(=O)C(C)(C)C3C(=O)C1)C2 (centres undefined) | > 100 µM | > 100 µM | – | > 100 µM | > 100 µM | > 100 µM | > 100 µM | > 100 µM | > 100 µM | > 100 µM | – | – | – | – | – | –
OCc1ccc2c(c1)CC1(Cc3ccc(/C=N/O)cc3C1)C2 (centres undefined) | 10.8 µM | 21.6 µM | 96.5 µM | > 49.3 µM | – | > 100 µM | > 78.8 µM | > 76.7 µM | > 100 µM | 71 µM | – | – | – | – | – | –
O=c1[nH]c(=O)n(C2CC(O)C(CO)O2)cc1OCc1ccccc1 (centres undefined) | > 100 µM | > 100 µM | – | > 100 µM | > 100 µM | > 100 µM | > 100 µM | > 100 µM | > 100 µM | > 100 µM | – | – | – | – | – | –
CN(C)CCC(=O)/C=C\c1ccccc1 | 39.3 µM | 30.4 µM | 39.5 µM | 31.6 µM | – | 28.7 µM | 32.8 µM | > 100 µM | – | 49.3 µM | – | – | – | – | – | –
c1c2c(cc(-n3nnc4c3CCCCCC4)c1-n1nnc3c1CCCCCC3)CCCCCC2 | 1.85 µM | 32.8 µM | 22.2 µM | 22.4 µM | – | 21.6 µM | – | 39 µM | – | 41.6 µM | – | – | – | – | – | –
CCOC(=O)C#Cc1ccccc1 | – | 39.1 µM | 75.3 µM | 25.9 µM | 75.2 µM | 17.7 µM | 33.2 µM | 46.3 µM | 31.3 µM | > 100 µM | – | – | – | – | – | –
CC(=O)c1cnc2oc3ccc(O)cc3c2c1-c1ccccc1 | – | > 100 µM | 88.6 µM | > 100 µM | > 100 µM | > 100 µM | 81.2 µM | – | > 100 µM | > 100 µM | – | – | – | – | – | –
O=C(N/N=C/c1ccc(Br)cc1)N/N=C/c1ccc(Br)cc1 | – | 32.4 µM | – | 18.5 µM | > 100 µM | > 100 µM | 15.6 µM | 17.5 µM | > 100 µM | 22.9 µM | – | – | – | – | – | –
COc1cc2c(c(O)c1OC)C(=O)C(Cc1ccc(O)cc1)CO2 (centres undefined) | 15.3 µM | 84 µM | – | > 100 µM | 8.65 µM | > 100 µM | > 100 µM | > 100 µM | > 100 µM | > 100 µM | – | – | – | – | – | –
O=c1cc(N2CCCC2)[nH]c(=O)n1-c1ccccc1 | > 100 µM | > 100 µM | – | > 100 µM | > 100 µM | > 100 µM | > 100 µM | > 100 µM | > 100 µM | > 100 µM | – | – | – | – | – | –
O=c1cc(-c2ccccc2)oc2c(-c3cc(Cl)cc4c(=O)cc(-c5ccccc5)oc34)cc(Cl)cc12 | 55.3 µM | > 100 µM | 56.7 µM | > 100 µM | > 100 µM | – | 75.8 µM | > 100 µM | > 100 µM | 83 µM | – | – | – | – | – | –
C=C1c2nc3ccccc3n2C=C(c2ccc(Cl)cc2)N1c1ccc(OC)cc1 | 18.5 µM | 21 µM | > 100 µM | 25.4 µM | 31.8 µM | 21.6 µM | 13.3 µM | – | 45.5 µM | 15.6 µM | – | – | – | – | – | –
